{"source": "ChEMBL document CHEMBL4396913", "about": "“Synthesis and biological evaluation of hybrid quinolone-based quaternary ammonium antibacterial agents” (Eur J Med Chem, 2019)", "key": {"Staphylococcus aureus [1]": {"system": "Staphylococcus aureus", "assay": "Biofilm degradation activity against Staphylococcus aureus ATCC 6538 assessed as biofilm formation at 2 times antibacterial MIC incubated for 24 hrs compound added post-biofilm formation by total biomass crystal violet staining-based method", "format": "functional"}, "Escherichia coli [2]": {"system": "Escherichia coli", "assay": "Induction of inner membrane permeabilization in Escherichia coli ATCC 8739 assessed as increase in release of cytoplasmic beta galactosidase using ONPG as substrate at above bactericidal concentration incubated for 90 mins compound added with bacterial cells after lag time of about 10 mins by spectrophotometry", "format": "organism-based"}, "Pseudomonas aeruginosa [3]": {"system": "Pseudomonas aeruginosa", "assay": "Biofilm degradation activity against Pseudomonas aeruginosa ATCC 9027 assessed as biofilm formation at 2 times antibacterial MIC incubated for 24 hrs compound added post-biofilm formation by total biomass crystal violet staining-based method", "format": "functional"}, "Escherichia coli [4]": {"system": "Escherichia coli", "assay": "Induction of inner membrane permeabilization in Escherichia coli ATCC 8739 assessed as increase in release of cytoplasmic beta galactosidase using ONPG as substrate at 128 ug/ml incubated for 90 mins compound added with bacterial cells after lag time of about 10 mins by spectrophotometry", "format": "organism-based"}, "Staphylococcus aureus [5]": {"system": "Staphylococcus aureus", "assay": "Antibiofilm activity against Staphylococcus aureus ATCC 6538 assessed as biofilm formation at antibacterial MIC incubated for 24 hrs compound added prior to bacterial biofilm formation by total biomass crystal violet staining-based method relative to control", "format": "functional"}, "[6]": {"assay": "Drug uptake in Escherichia coli ATCC 8739 assessed as cellular accumulation treated with 100 uM CCCP for 10 mins prior to compound challenge for 0.5 hrs by laser confocal microscopy", "format": "ADME"}, "Staphylococcus aureus [7]": {"system": "Staphylococcus aureus", "assay": "Antibiofilm activity against Staphylococcus aureus ATCC 25923 pre-formed mature biofilm assessed as reduction in biofilm viability at 40 uM incubated for 24 hrs compound added post-biofilm formation by resazurin staining based assay relative to control", "format": "functional", "conditions": "ATCC 25923, 24 h"}, "Escherichia coli [8]": {"system": "Escherichia coli", "assay": "Bactericidal activity against Escherichia coli ATCC 8739 cultured in MH medium assessed as reduction in bacterial survival incubated for 48 hrs by microbroth dilution method", "format": "functional", "conditions": "ATCC 8739, 48 h"}, "Staphylococcus aureus [9]": {"system": "Staphylococcus aureus", "assay": "Antibiofilm activity against Staphylococcus aureus ATCC 25923 pre-formed mature biofilm assessed as reduction in biofilm biomass at 40 uM incubated for 24 hrs compound added post biofilm formation by crystal violet staining based assay relative to control", "format": "functional", "conditions": "ATCC 25923, 24 h"}, "Staphylococcus aureus [10]": {"system": "Staphylococcus aureus", "assay": "Bactericidal activity against methicillin resistant Staphylococcus aureus 6347 cultured in MH medium assessed as reduction in bacterial survival incubated for 48 hrs by microbroth dilution method", "format": "functional", "conditions": "Staphylococcus aureus, 6347, 48 h"}, "DNA gyrase": {"target": "DNA gyrase (Escherichia coli, UniProt P0AES4+P0AES6)", "assay": "Inhibition of Escherichia coli DNA gyrase super-coiling activity using relaxed pNO1 DNA as substrate incubated for 30 mins by fluorescence assay", "format": "protein-complex assay"}, "Streptococcus pneumoniae": {"system": "Streptococcus pneumoniae", "assay": "Antibacterial activity against Streptococcus pneumoniae cultured in MH medium assessed as reduction in bacterial growth incubated for 48 hrs by microbroth dilution method", "format": "functional"}, "Escherichia coli [11]": {"system": "Escherichia coli", "assay": "Antibacterial activity against Escherichia coli ATCC 8739 assessed as reduction in cell number with morphological disorders at 128 ug/ml incubated for 30 mins by laser confocal microscopy", "format": "functional, organism-based"}, "Pseudomonas aeruginosa [12]": {"system": "Pseudomonas aeruginosa", "assay": "Biofilm degradation activity against Pseudomonas aeruginosa ATCC 9027 assessed as biofilm formation at antibacterial MIC incubated for 24 hrs compound added post-biofilm formation by total biomass crystal violet staining-based method", "format": "functional"}, "[13]": {"assay": "Drug uptake in Escherichia coli ATCC 8739 assessed as membrane accumulation and affinity to cell structure at 128 ug/ml incubated for 30 mins by laser confocal microscopy", "format": "ADME", "conditions": "0.5 h"}, "Escherichia coli [14]": {"system": "Escherichia coli", "assay": "Antibacterial activity against Escherichia coli ATCC 8739 assessed as bacterial cell swelling followed by non-divisional long cord formation and cell aggregates formation at 128 ug/ml incubated for 30 mins by laser confocal microscopy", "format": "functional, organism-based"}, "Enterococcus hirae": {"system": "Enterococcus hirae", "assay": "Bactericidal activity against Enterococcus hirae ATCC 1052 cultured in BHI medium assessed as reduction in bacterial survival incubated for 48 hrs by microbroth dilution method", "format": "functional", "conditions": "ATCC 1052, 48 h"}, "Staphylococcus aureus [15]": {"system": "Staphylococcus aureus", "assay": "Antibiofilm activity against Staphylococcus aureus ATCC 25923 assessed as biofilm biomass at <0.625 uM incubated for 24 hrs compound added prior to bacterial biofilm formation by crystal violet staining based assay", "format": "functional, organism-based"}, "[16]": {"system": "Staphylococcus epidermidis", "assay": "Resistance index, ratio of MIC for methicillin resistant Staphylococcus epidermidis ATCC 13199 measured after 2 dilution steps to MIC for Staphylococcus epidermidis ATCC 13199 measured after 48 hrs incubation by microbroth dilution method", "format": "functional"}, "[17]": {"system": "Staphylococcus epidermidis", "assay": "Resistance index, ratio of MIC for methicillin resistant Staphylococcus epidermidis ATCC 13199 measured after 4 dilution steps to MIC for Staphylococcus epidermidis ATCC 13199 measured after 48 hrs incubation by microbroth dilution method", "format": "functional"}}, "note": "Active and inactive are the calls of the source. No cut-off for these calls is given here.", "data": [{"compound": "O=C(O)C1=Cc2ccccc2N2C[N+]3(CCN(c4cc5c(cc4F)c(=O)c(C(=O)O)cn5C4CC4)CC3)N=C12.[Cl-]", "values": [{"measurement": "Activity", "setting": "Staphylococcus aureus [1]", "value": 28, "unit": "%"}, {"measurement": "Activity", "setting": "Escherichia coli [2]", "value": "Active"}, {"measurement": "Activity", "setting": "Pseudomonas aeruginosa [3]", "value": 39, "unit": "%"}, {"measurement": "Activity", "setting": "Escherichia coli [4]", "value": "Active"}, {"measurement": "Activity", "setting": "Staphylococcus aureus [5]", "value": 6, "unit": "%"}, {"measurement": "Drug uptake", "setting": "[6]", "value": "Dose-dependent effect"}, {"measurement": "inhibition at 40 µM", "setting": "Staphylococcus aureus [7]", "value": 100, "unit": "%"}, {"measurement": "MBC", "setting": "Escherichia coli [8]", "value": 2, "unit": "µg/mL"}, {"measurement": "inhibition at 40 µM", "setting": "Staphylococcus aureus [9]", "value": 50, "unit": "%"}, {"measurement": "MBC", "setting": "Staphylococcus aureus [10]", "value": 2, "unit": "µg/mL"}, {"measurement": "IC50", "setting": "DNA gyrase", "value": 6.02, "unit": "µM"}, {"measurement": "MIC", "setting": "Streptococcus pneumoniae", "value": 256, "unit": "µg/mL"}, {"measurement": "Activity", "setting": "Escherichia coli [11]", "value": "Active"}, {"measurement": "Activity", "setting": "Pseudomonas aeruginosa [12]", "value": 49, "unit": "%"}, {"measurement": "Drug uptake", "setting": "[13]", "value": "Not Active"}, {"measurement": "Activity", "setting": "Escherichia coli [14]", "value": "Active"}]}, {"compound": "CCn1cc(C(=O)O)c(=O)c2cc(F)c(N3CC[N+]4(CN5C(=N4)C(C(=O)O)=Cc4ccccc45)C(C)C3)c(F)c21.[Cl-]", "note": "(configuration not stated)", "values": [{"measurement": "Activity", "setting": "Staphylococcus aureus [1]", "value": 44, "unit": "%"}, {"measurement": "Activity", "setting": "Pseudomonas aeruginosa [3]", "value": 51, "unit": "%"}, {"measurement": "Activity", "setting": "Staphylococcus aureus [5]", "value": 69, "unit": "%"}, {"measurement": "MBC", "setting": "Escherichia coli [8]", "value": 0.5, "unit": "µg/mL"}, {"measurement": "MBC", "setting": "Staphylococcus aureus [10]", "value": 16, "unit": "µg/mL"}, {"measurement": "MBC", "setting": "Enterococcus hirae", "value": 512, "unit": "µg/mL"}, {"measurement": "IC50", "setting": "DNA gyrase", "value": 2.44, "unit": "µM"}, {"measurement": "MIC", "setting": "Streptococcus pneumoniae", "value": 512, "unit": "µg/mL"}, {"measurement": "inhibition", "setting": "Staphylococcus aureus [15]", "value": "inactive"}, {"measurement": "Activity", "setting": "Pseudomonas aeruginosa [12]", "value": 65, "unit": "%"}]}, {"compound": "CCn1cc(C(=O)O)c(=O)c2cc(F)c(N3CC[N+]4(CC3)CN3C(=N4)C(C(=O)O)=Cc4ccccc43)nc21.[Cl-]", "values": [{"measurement": "Activity", "setting": "Staphylococcus aureus [1]", "value": 21, "unit": "%"}, {"measurement": "Activity", "setting": "Pseudomonas aeruginosa [3]", "value": 43, "unit": "%"}, {"measurement": "Ratio", "setting": "[16]", "value": 4}, {"measurement": "Activity", "setting": "Staphylococcus aureus [5]", "value": 18, "unit": "%"}, {"measurement": "Ratio", "setting": "[17]", "value": 16}, {"measurement": "MBC", "setting": "Escherichia coli [8]", "value": 2, "unit": "µg/mL"}, {"measurement": "MBC", "setting": "Staphylococcus aureus [10]", "value": 16, "unit": "µg/mL"}, {"measurement": "MBC", "setting": "Enterococcus hirae", "value": 512, "unit": "µg/mL"}, {"measurement": "MIC", "setting": "Streptococcus pneumoniae", "value": 256, "unit": "µg/mL"}, {"measurement": "inhibition", "setting": "Staphylococcus aureus [15]", "value": "inactive"}, {"measurement": "Activity", "setting": "Pseudomonas aeruginosa [12]", "value": 61, "unit": "%"}]}]}
